Measured values published in patent publication US10023484B2, “Use of peracetic acid/hydrogen peroxide and peroxide-reducing agents for treatment of drilling fluids, frac fluids, flowback water and disposal water” (Ecolab USA Inc., priority 2012, dated 2018).

Legend:
[1] = Effect of catalase and treatment sequence on peracid stability in 80/20 water blends (Example 10); assay type: physicochemical; settings: theoretical initial POAA 82 ppm
Description: The effect of catalase on the peracid stability within treated waters was further evaluated. Water blends of 80/20 (80% fresh water/20% produced water) were employed to analyze the impact on various treatment sequences set forth in Table 14.
Due to the efficacious results shown in FIG. 15, the same methods were used to further evaluate a pretreatment using a lower concentration of the catalase as shown in Table 15.

[2] = tested on: Pseudomonas aeruginosa ATCC 15442; experiment: Micro efficacy at 30 ppm POAA EnviroSan with/without catalase, with/without water pretreatment (Example 7); assay type: cell-based; settings: no pretreatment, 30 ppm PAA
Protocol: Additional micro efficacy performance was evaluated to confirm the improved micro efficacy observed in Example 6 when using increasing amounts of produced water with the dosing static initial concentrations of POAA (30 ppm or 40 ppm) with catalase. Improved micro efficacy with increased amounts of produced water present in a mixture is a highly counterintuitive result and was unexpected. Under normal conditions, it would be expected to have decreased micro efficacy as the amount of produced water (e.g. recycled) increases and the amount of POAA remains static as a result of the increased contamination found in produced water as opposed to fresh water sources. As a result, subsequent evaluation observed the activity of the water itself against a spiked culture of P. aeruginosa over a 1 hour exposure period to determine whether the produced water itself has an antimicrobial present.
All water mixtures were treated with an initial concentration of 30 ppm POAA EnviroSan, both with and without the addition of catalase. The data set evaluates whether there is a significant difference in micro activity generated between treatments of EnviroSan alone vs. EnviroSan pre-reduced with catalase.
All ratios of fracking water mixtures tested (100/0, 90/10, 80/20 & 70/30) were freshly mixed solutions, as well as solutions mixed and pretreated with 500 ppm EnviroSan product more than 1 hour before the start of the micro evaluation, in order to observe if a pretreatment step is of value for micro performance compared to those mixtures not pretreated. The test system (P. aeruginosa and natural water) described in Example 5 was again utilized. Water mixtures as outlined in Table 9 were provided (showing the percentage of 100 mL of each water sample type).
The testing methods of Example 5 were utilized for the chemically treated water samples, differing only in the combination of the 10 mL inoculated water mixtures with appropriate volumes of the EnviroSan with or without catalase to achieve 30 ppm POAA residual to each test tube in timed intervals and mixed. The methods of Example 5 were employed to make the EnviroSan with catalase stock solutions. In comparison, for the water samples that were not chemically treated, 9.9 mL of test water mixture was dispensed into 2 individual test tubes. 0.10 mL of an approximate 10^8 CFU/mL culture of P. aeruginosa was added in timed intervals and mixed thoroughly. Then 1 mL samples were neutralized in 9 mL of 0.5% sodium thiosulfate, followed by serial dilution and enumeration after 2.5 minutes, 5 minutes and 60 minute exposure times.
In addition, data for enumeration of water samples for antimicrobial activity against P. aeruginosa over 60 minutes exposure are also summarized in Table 10.

fracking water mixtures [3] = experiment: Micro efficacy: POAA dosed for 30 ppm residual versus POAA pretreated with catalase (Example 8); assay type: cell-based
Protocol: A micro efficacy comparison of POAA added at levels to target 30 ppm POAA residuals at 5 minutes versus POAA pretreated with catalase was conducted as set forth in Table 12.

[4] = Titration of POAA consumption in water mixtures (Example 6); assay type: physicochemical; settings: 1 minute
fracking water mixtures [5] = experiment: Micro efficacy baseline in fracking water mixtures without catalase (Example 3); assay type: cell-based
Protocol: The impact of water pretreatment with 500 ppm of the EnviroSan product (75 ppm POAA) on micro efficacy in various fracking water mixtures were evaluated. The example represents a baseline data set of various water treatment options according to the invention. Table 2 and FIG. 3 show the average log reduction in various slick water treatments with varying ppm PAA (without any catalase treatment or pretreatment), representing a baseline data set.

[6] = Pretreated, catalase CA 400 5.8 ppm
[7] = Simult. Add, catalase CA 400 10 ppm
[8] = Simult. Add, catalase CA 400 100 ppm

SMILES: CC(=O)OO [POAA, peracetic acid]
- POAA Meas'd. at 1 min. ([1]; NA, catalase 0 ppm): 56 ppm
- POAA Meas'd. at 4 min. ([1]; NA, catalase 0 ppm): 31 ppm
- POAA Meas'd. at 5 min. ([1]; NA, catalase 0 ppm): 23 ppm
- POAA Meas'd. at 6 min. ([1]; NA, catalase 0 ppm): 17 ppm
- POAA Meas'd. at 1 min. [1, 6]: 76 ppm
- POAA Meas'd. at 4 min. [1, 6]: 75 ppm
- POAA Meas'd. at 5 min. [1, 6]: 75 ppm
- POAA Meas'd. at 6 min. [1, 6]: 75 ppm
- POAA Meas'd. at 1 min. [1, 7]: 63 ppm
- POAA Meas'd. at 4 min. [1, 7]: 34 ppm
- POAA Meas'd. at 5 min. [1, 7]: 31 ppm
- POAA Meas'd. at 6 min. [1, 7]: 26 ppm
- POAA Meas'd. at 1 min. [1, 8]: 66 ppm
- POAA Meas'd. at 4 min. [1, 8]: 61 ppm
- POAA Meas'd. at 5 min. [1, 8]: 65 ppm
- POAA Meas'd. at 6 min. [1, 8]: 58 ppm
- Avg. Log10 Reduction ([2]; 0% reuse H2O, Catalase, 2.5 minutes): 4.62
- Avg. Log10 Reduction ([2]; 0% reuse H2O, Catalase, 5 minutes): 6.22
- Avg. Log10 Reduction ([2]; 0% reuse H2O, NO Catalase, 2.5 minutes): 4.64
- Avg. Log10 Reduction ([2]; 0% reuse H2O, NO Catalase, 5 minutes): 6.32
- Avg. Log10 Reduction ([2]; 10% reuse H2O, Catalase, 2.5 minutes): 5.29
- Avg. Log10 Reduction ([2]; 10% reuse H2O, Catalase, 5 minutes): 5.96
- Avg. Log10 Reduction ([2]; 10% reuse H2O, NO Catalase, 2.5 minutes): 3.09
- Avg. Log10 Reduction ([2]; 10% reuse H2O, NO Catalase, 5 minutes): 3.91
- Avg. Log10 Reduction ([2]; 20% reuse H2O, Catalase, 2.5 minutes): 5.73
- Avg. Log10 Reduction ([2]; 20% reuse H2O, Catalase, 5 minutes): 6.36
- Avg. Log10 Reduction ([2]; 20% reuse H2O, NO Catalase, 2.5 minutes): 2.19
- Avg. Log10 Reduction ([2]; 20% reuse H2O, NO Catalase, 5 minutes): 2.38
- Avg. Log10 Reduction ([2]; 30% reuse H2O, Catalase, 2.5 minutes): 5.30
- Avg. Log10 Reduction ([2]; 30% reuse H2O, Catalase, 5 minutes): 5.98
- Avg. Log10 Reduction ([2]; 30% reuse H2O, NO Catalase, 2.5 minutes): 1.88
- Avg. Log10 Reduction ([2]; 30% reuse H2O, NO Catalase, 5 minutes): 1.93
- Avg. Log10 Reduction (fracking water mixtures [3]; 10% reuse H2O, 30 ppm PAA, Catalase, 2.5 minutes): 5.29
- Avg. Log10 Reduction (fracking water mixtures [3]; 10% reuse H2O, 30 ppm PAA, Catalase, 5 minutes): 5.96
- Avg. Log10 Reduction (fracking water mixtures [3]; 10% reuse H2O, 46 ppm PAA, NO Catalase, 2.5 minutes): 4.32
- Avg. Log10 Reduction (fracking water mixtures [3]; 10% reuse H2O, 46 ppm PAA, NO Catalase, 5 minutes): 4.72
- Avg. Log10 Reduction (fracking water mixtures [3]; 20% reuse H2O, 30 ppm PAA, Catalase, 2.5 minutes): 5.73
- Avg. Log10 Reduction (fracking water mixtures [3]; 20% reuse H2O, 30 ppm PAA, Catalase, 5 minutes): 6.36
- Avg. Log10 Reduction (fracking water mixtures [3]; 20% reuse H2O, 86 ppm PAA, NO Catalase, 2.5 minutes): 4.57
- Avg. Log10 Reduction (fracking water mixtures [3]; 20% reuse H2O, 86 ppm PAA, NO Catalase, 5 minutes): 4.64
- Avg. Log10 Reduction (fracking water mixtures [3]; 30% reuse H2O, 30 ppm PAA, Catalase, 2.5 minutes): 5.30
- Avg. Log10 Reduction (fracking water mixtures [3]; 30% reuse H2O, 30 ppm PAA, Catalase, 5 minutes): 5.98
- Avg. Log10 Reduction (fracking water mixtures [3]; 30% reuse H2O, 138 ppm PAA, NO Catalase, 2.5 minutes): 4.12
- Avg. Log10 Reduction (fracking water mixtures [3]; 30% reuse H2O, 138 ppm PAA, NO Catalase, 5 minutes): 5.00
- Actual Titrated Concentration (ppm POAA) ([4]; 70% Fresh/30% Produced, desired 30 ppm POAA): 7 ppm
- Actual Titrated Concentration (ppm POAA) ([4]; 70% Fresh/30% Produced, desired 40 ppm POAA): 12 ppm
- Actual Titrated Concentration (ppm POAA) ([4]; 80% Fresh/20% Produced, desired 30 ppm POAA): 13 ppm
- Actual Titrated Concentration (ppm POAA) ([4]; 80% Fresh/20% Produced, desired 40 ppm POAA): 21 ppm
- Actual Titrated Concentration (ppm POAA) ([4]; 90% Fresh/10% Produced, desired 30 ppm POAA): 21 ppm
- Actual Titrated Concentration (ppm POAA) ([4]; 90% Fresh/10% Produced, desired 40 ppm POAA): 30 ppm
- Avg. Log10 Reduction (fracking water mixtures [5]; 75 ppm PAA pretreatment, 10% reuse H2O, 29 ppm POAA, NO catalase, 2.5 minutes): 6.45
- Avg. Log10 Reduction (fracking water mixtures [5]; 75 ppm PAA pretreatment, 10% reuse H2O, 29 ppm POAA, NO catalase, 5 minutes): 6.71
- Avg. Log10 Reduction (fracking water mixtures [5]; 75 ppm PAA pretreatment, 20% reuse H2O, 47 ppm PAA, NO catalase, 2.5 minutes): 6.42
- Avg. Log10 Reduction (fracking water mixtures [5]; 75 ppm PAA pretreatment, 20% reuse H2O, 47 ppm PAA, NO catalase, 5 minutes): 6.55
- Avg. Log10 Reduction (fracking water mixtures [5]; 75 ppm PAA pretreatment, 30% reuse H2O, 86 ppm POAA, NO catalase, 2.5 minutes): 6.47
- Avg. Log10 Reduction (fracking water mixtures [5]; 75 ppm PAA pretreatment, 30% reuse H2O, 86 ppm POAA, NO catalase, 5 minutes): 6.41
- Avg. Log10 Reduction (fracking water mixtures [5]; no holding tank pretreatment, 0% reuse H2O, 22 ppm POAA, 2.5 minutes): 5.53
- Avg. Log10 Reduction (fracking water mixtures [5]; no holding tank pretreatment, 0% reuse H2O, 22 ppm POAA, 5 minutes): 5.75
- Avg. Log10 Reduction (fracking water mixtures [5]; no pretreatment, 10% reuse H2O, 36 ppm POAA, 2.5 minutes): 4.32
- Avg. Log10 Reduction (fracking water mixtures [5]; no pretreatment, 10% reuse H2O, 36 ppm POAA, 5 minutes): 4.72
- Avg. Log10 Reduction (fracking water mixtures [5]; no pretreatment, 20% reuse H2O, 86 ppm POAA, 2.5 minutes): 4.57
- Avg. Log10 Reduction (fracking water mixtures [5]; no pretreatment, 20% reuse H2O, 86 ppm POAA, 5 minutes): 4.64
- Avg. Log10 Reduction (fracking water mixtures [5]; no pretreatment, 30% reuse H2O, 138 ppm POAA, 2.5 minutes): 4.12
- Avg. Log10 Reduction (fracking water mixtures [5]; no pretreatment, 30% reuse H2O, 138 ppm POAA, 5 minutes): 5.00
